# Test results taken from paper PMC3559007 (Neuron, 2013).
# Changes are numbered by the printed parent chain. Like-named read-outs stand apart in the source and are kept apart here.
# Columns and labels:
# human Hv1 channel [1] = target: T1, human Hv1 channel (Homo sapiens, UniProt Q96D96); assay: Inside-out patch clamp of proton currents, Xenopus oocytes expressing human Hv1; assay type: cell-based; conditions: for Inhibition of Hv1 proton current compared with 2GBI: 200 µM intracellular, inside-out patch, +120 mV
# T1 sequence (Q96D96 1-273): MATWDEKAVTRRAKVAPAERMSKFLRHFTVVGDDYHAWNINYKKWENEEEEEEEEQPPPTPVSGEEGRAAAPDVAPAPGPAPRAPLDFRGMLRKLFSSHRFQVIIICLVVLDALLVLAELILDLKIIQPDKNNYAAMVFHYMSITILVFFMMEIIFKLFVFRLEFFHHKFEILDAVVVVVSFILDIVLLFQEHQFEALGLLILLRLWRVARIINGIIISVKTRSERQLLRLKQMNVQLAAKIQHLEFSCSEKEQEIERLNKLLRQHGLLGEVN
# human Hv1 channel [2] = target: T1, human Hv1 channel; conditions: cited from earlier work; for Inhibition of Hv1 channel by intracellular quaternary ammonium ions: ref Musset et al., 2011, Ramsey et al., 2006
# Hv1 F150A = target: T2, Hv1 F150A (Homo sapiens, UniProt Q96D96, F150A); assay: Inside-out patch clamp, inhibition of Hv1 F150A mutant; assay type: cell-based; conditions: 1 µM 2GBI, 500 µM guanidinium, 7.9 mM magnesium, intracellular
# T2 sequence (Q96D96 1-273 F150A): T1 sequence (Q96D96 1-273) with F150A
# [3] = test system: F150A-WT linked Hv1 heterodimers; assay: Inside-out patch clamp, partial block of linked F150A-WT Hv1 heterodimers; assay type: cell-based, human; conditions: 2 µM 2GBI, +120 mV
structure (smiles),measurement,setting,value
"N=C(N)Nc1nc2ccccc2s1 [Compound 12, 1-(1,3-benzothiazol-2-yl)guanidine]",Inhibition of Hv1 proton current compared with 2GBI,human Hv1 channel [1],almost as effectively as 2GBI
"N=C(N)Nc1nc2ccccc2o1 [Compound 11, 1-(1,3-benzoxazol-2-yl)guanidine]",IC50,human Hv1 channel [1],~9 mM
"CN(C)C(=N)N=C(N)N [Compound 8, metformin, reference compound]",Inhibition of Hv1 proton current compared with 2GBI,human Hv1 channel [1],not as effective as 2GBI
"CC[N+](CC)(CC)CC [TEA^+, tetraethylammonium]",Inhibition of Hv1 channel by intracellular quaternary ammonium ions,human Hv1 channel [2],do not inhibit
"[Mg+2] [magnesium, reference compound]",Difference in binding affinity between F150A and wild type channels,Hv1 F150A,no difference
same,IC50,"human Hv1 channel [1]; wild type Hv1, GBOZ curve extrapolated above solubility limit",~9 mM
"Cc1nc(NC(=N)N)nc2ccccc12 [Compound 9, 2-guanidino-4-methylquinazoline]",Inhibition of Hv1 proton current compared with 2GBI,human Hv1 channel [1],not as effective as 2GBI
C[N+](C)(C)C [TMA^+],Inhibition of Hv1 channel by intracellular quaternary ammonium ions,human Hv1 channel [2],do not inhibit
"CC(=O)N(C(=N)NC(=N)N)c1ccccc1 [Compound 10, N-(guanidino-imino-methyl)-N-phenylacetamide]",Inhibition of Hv1 proton current compared with 2GBI,human Hv1 channel [1],not as effective as 2GBI
"N=C(N)N [Compound 1, Guanidine]",Inhibition of Hv1 and effect on activation curve,"human Hv1 channel [2]; ref Tombola et al., 2008",inhibit Hv1 without shifting the channel’s activation curve
same,Difference in binding affinity between F150A and wild type channels,Hv1 F150A,much smaller difference
same,Concentration range effective at inhibiting proton currents,human Hv1 channel [1],millimolar concentration range
"N=C(N)Nc1nc2ccccc2[nH]1 [Compound 7, 2-guanidinobenzimidazole]",Total inhibition of the initial current,[3],~ 50%
same,Estimated fraction of wild type subunits blocked,[3]; estimated from dissociation constants of homodimers,~6%
